Test results reported in patent US12624018B1, “Inhibitors of RIPK2 and medical uses thereof” (Odyssey Therapeutics, Inc., priority 2022, dated 2026).

The molecules below were run against T1, RIPK2 enzyme (Homo sapiens, UniProt O43353) (assay: RIPK2 inhibition (ADP-Glo Kinase Assay)). Settings: RIPK2 5 nM, ATP 150 μM, MBP substrate, read-out: RIPK2 IC50.
T1 construct: purchased Carna 09-128
Type: biochemical
Summary of the method: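 Human RIPK2 (5 nM) preincubated with compound 30 min at room temperature in 50 mM HEPES pH 7.5, 10 mM MgCl2, 2 mM DTT, 1 mM EGTA, 0.01% Brij-35, 0.05% BSA; native swine MBP as substrate. ADP formed quantified by ADP-Glo luminescence; percent inhibition relative to DMSO and no-enzyme controls.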

T1 sequence (O43353 1-299 limits assumed): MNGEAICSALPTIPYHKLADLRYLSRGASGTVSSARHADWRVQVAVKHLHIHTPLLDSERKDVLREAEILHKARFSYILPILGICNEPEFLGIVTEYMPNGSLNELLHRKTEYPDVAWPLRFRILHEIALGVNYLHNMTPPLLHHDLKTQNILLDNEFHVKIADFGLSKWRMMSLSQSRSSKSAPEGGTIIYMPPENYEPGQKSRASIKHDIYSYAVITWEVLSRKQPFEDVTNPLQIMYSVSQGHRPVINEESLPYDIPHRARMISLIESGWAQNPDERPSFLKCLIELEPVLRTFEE

SMILES	IC50 [nM]
Cc1cc(CC(=O)Nc2cnn(C(C)(C)C)c2)ccc1Oc1ccnc2ccc(-c3ncc(CO)cn3)cc12 [Compound 244, N-(1-(tert-butyl)-1H-pyrazol-4-yl)-2-(4-((6-(5-(hydroxymethyl)pyrimidin-2-yl)quinolin-4-yl)oxy)-3-methylphenyl)acetamide]	< 2.5
Cc1cc(CC(=O)Nc2cnn(C(C)(C)C)c2)ccc1Oc1ccnc2ccc(-c3ccc[nH]c3=O)cc12 [Compound 245, N-(1-(tert-butyl)-1H-pyrazol-4-yl)-2-(3-methyl-4-((6-(2-oxo-1,2-dihydropyridin-3-yl)quinolin-4-yl)oxy)phenyl)acetamide]	< 2.5
Cc1cc(CC(=O)Nc2cnn(C(C)(C)C)c2)ccc1Oc1ccnc2ccc(-c3cccn(C)c3=O)cc12 [Compound 246, N-(1-(tert-butyl)-1H-pyrazol-4-yl)-2-(3-methyl-4-((6-(1-methyl-2-oxo-1,2-dihydropyridin-3-yl)quinolin-4-yl)oxy)phenyl)acetamide]	3.8
Cc1cc(CC(=O)Nc2cnn(C(C)(C)C)c2)ccc1Oc1ccnc2ccc(-c3ncc[nH]c3=O)cc12 [Compound 247, N-(1-(tert-butyl)-1H-pyrazol-4-yl)-2-(3-methyl-4-((6-(3-oxo-3,4-dihydropyrazin-2-yl)quinolin-4-yl)oxy)phenyl)acetamide]	< 2.5
Cc1c(Oc2ccnc3ccc(S(=O)(=O)C4COC4)cc23)ccc(CC(=O)Nc2cnn(C(C)(C)C)c2)c1F [Compound 248, N-(1-(tert-butyl)-1H-pyrazol-4-yl)-2-(2-fluoro-3-methyl-4-((6-(oxetan-3-ylsulfonyl)quinolin-4-yl)oxy)phenyl)acetamide]	< 2.5
Cc1c(Oc2ccnc3ccc(S(=O)(=O)C4CCOCC4)cc23)ccc(CC(=O)Nc2cnn(C(C)(C)C)c2)c1F [Compound 249, N-(1-(tert-butyl)-1H-pyrazol-4-yl)-2-(2-fluoro-3-methyl-4-((6-((tetrahydro-2H-pyran-4-yl)sulfonyl)quinolin-4-yl)oxy)phenyl)acetamide]	< 2.5
Cc1cc(CC(=O)Nc2cnn(C(C)(C)C)c2)ccc1Oc1ccnc2ccc(CN3CCNCC3)cc12 [Compound 252, N-(1-(tert-butyl)-1H-pyrazol-4-yl)-2-(3-methyl-4-((6-(piperazin-1-ylmethyl)quinolin-4-yl)oxy)phenyl)acetamide]	< 2.5
Cc1cc(CC(=O)Nc2cnn(C(C)(C)C)c2)ccc1Oc1ccnc2ccc(S(N)(=O)=O)cc12 [Compound 254, N-(1-(tert-butyl)-1H-pyrazol-4-yl)-2-(3-methyl-4-((6-sulfamoylquinolin-4-yl)oxy)phenyl)acetamide]	< 2.5
CNS(=O)(=O)c1ccc2nccc(Oc3ccc(CC(=O)Nc4cnn(C(C)(C)C)c4)cc3C)c2c1 [Compound 255, N-(1-(tert-butyl)-1H-pyrazol-4-yl)-2-(3-methyl-4-((6-(N-methylsulfamoyl)quinolin-4-yl)oxy)phenyl)acetamide]	< 2.5
Cc1cc(CC(=O)Nc2cnn(C(C)(C)C)c2)ccc1Oc1ccnc2ccc(S(=O)(=O)N(C)C)cc12 [Compound 256, N-(1-(tert-butyl)-1H-pyrazol-4-yl)-2-(4-((6-(N,N-dimethylsulfamoyl)quinolin-4-yl)oxy)-3-methylphenyl)acetamide]	< 2.5
Cc1cc(CC(=O)Nc2cnn(C(C)(C)C)c2)ccc1Oc1ccnc2ccc(S(=O)(=O)N3CCCC3)cc12 [Compound 257, N-(1-(tert-butyl)-1H-pyrazol-4-yl)-2-(3-methyl-4-((6-(pyrrolidin-1-ylsulfonyl)quinolin-4-yl)oxy)phenyl)acetamide]	< 2.5
Cc1cc(CC(=O)Nc2cnn(C(C)(C)C)c2)ccc1Oc1ccnc2ccc(S(=O)(=O)N3CCC3)cc12 [Compound 258, 2-(4-((6-(azetidin-1-ylsulfonyl)quinolin-4-yl)oxy)-3-methylphenyl)-N-(1-(tert-butyl)-1H-pyrazol-4-yl)acetamide]	< 2.5
Cc1cc(CC(=O)Nc2cnn(C(C)(C)C)c2)ccc1Oc1ccnc2ccc(S(=O)(=O)N3CC(F)C3)cc12 [Compound 259, N-(1-(tert-butyl)-1H-pyrazol-4-yl)-2-(4-((6-((3-fluoroazetidin-1-yl)sulfonyl)quinolin-4-yl)oxy)-3-methylphenyl)acetamide]	< 2.5
Cc1cc(CC(=O)Nc2cnn(C(C)(C)C)c2)ccc1Oc1ccnc2ccc(S(=O)(=O)N3CC(C#N)C3)cc12 [Compound 260, N-(1-(tert-butyl)-1H-pyrazol-4-yl)-2-(4-((6-((3-cyanoazetidin-1-yl)sulfonyl)quinolin-4-yl)oxy)-3-methylphenyl)acetamide]	2.5
Cc1cc(CC(=O)Nc2cnn(C(C)(C)C)c2)ccc1Oc1ccnc2ccc(S(=O)(=O)N3CCOCC3)cc12 [Compound 261, N-(1-(tert-butyl)-1H-pyrazol-4-yl)-2-(3-methyl-4-((6-(morpholinosulfonyl)quinolin-4-yl)oxy)phenyl)acetamide]	< 2.5
Cc1cc(CC(=O)Nc2cnn(C(C)(C)C)c2)ccc1Oc1ccnc2ccc(S(=O)(=O)N(C)CCO)cc12 [Compound 262, N-(1-(tert-butyl)-1H-pyrazol-4-yl)-2-(4-((6-(N-(2-hydroxyethyl)-N-methylsulfamoyl)quinolin-4-yl)oxy)-3-methylphenyl)acetamide]	< 2.5
COCCN(C)S(=O)(=O)c1ccc2nccc(Oc3ccc(CC(=O)Nc4cnn(C(C)(C)C)c4)cc3C)c2c1 [Compound 263, N-(1-(tert-butyl)-1H-pyrazol-4-yl)-2-(4-((6-(N-(2-methoxyethyl)-N-methylsulfamoyl)quinolin-4-yl)oxy)-3-methylphenyl)acetamide]	< 2.5
Cc1cc(CC(=O)Nc2cnn(C(C)(C)C)c2)ccc1Oc1ccnc2ccc(NS(C)(=O)=O)cc12 [Compound 264, N-(1-(tert-butyl)-1H-pyrazol-4-yl)-2-(3-methyl-4-((6-(methylsulfonamido)quinolin-4-yl)oxy)phenyl) acetamide]	< 2.5
Cc1cc(CC(=O)Nc2cnn(C(C)(C)C)c2)ccc1Oc1ccnc2ccc(N(C)S(C)(=O)=O)cc12 [Compound 265, N-(1-(tert-butyl)-1H-pyrazol-4-yl)-2-(3-methyl-4-((6-(N-methylmethyl-sulfonamido)quinolin-4-yl)oxy)phenyl) acetamide]	< 2.5
Cc1cc(CC(=O)Nc2cnn(C(C)(C)C)c2)ccc1Oc1ccnc2ccc(N3CCCS3(=O)=O)cc12 [Compound 266, N-(1-(tert-butyl)-1H-pyrazol-4-yl)-2-(4-((6-(1,1-dioxidoisothiazolidin-2-yl)quinolin-4-yl)oxy)-3-methylphenyl) acetamide]	< 2.5
Cc1c(Oc2ccnc3ccc(S(N)(=O)=O)cc23)ccc(CC(=O)Nc2cnn(C(C)(C)C)c2)c1F [Compound 267, N-(1-(tert-butyl)-1H-pyrazol-4-yl)-2-(2-fluoro-3-methyl-4-((6-sulfamoylquinolin-4-yl)oxy)phenyl)acetamide]	< 2.5
CNS(=O)(=O)c1ccc2nccc(Oc3ccc(CC(=O)Nc4cnn(C(C)(C)C)c4)c(F)c3C)c2c1 [Compound 268, N-(1-(tert-butyl)-1H-pyrazol-4-yl)-2-(2-fluoro-3-methyl-4-((6-(N-methylsulfamoyl)quinolin-4-yl)oxy)phenyl)acetamide]	< 2.5
